Where a SMILES comes first, the peptide text is derived from it. [ ]: non-standard residue; d: D form. Ac6c = NC1(C(=O)O)CCCCC1; Ac5c = NC1(C(=O)O)CCCC1; Sar = CNCC(=O)O
Experiments:
Format in all cases: cell-based
human AT1R [1] = target: T1, human AT1R (Homo sapiens, UniProt P30556); experiment: IP1 accumulation assay (IP1 G-protein assay), human AT1R; conditions: for Emax: read-out: Span (relative to hAngII)
T1 sequence (P30556 1-359): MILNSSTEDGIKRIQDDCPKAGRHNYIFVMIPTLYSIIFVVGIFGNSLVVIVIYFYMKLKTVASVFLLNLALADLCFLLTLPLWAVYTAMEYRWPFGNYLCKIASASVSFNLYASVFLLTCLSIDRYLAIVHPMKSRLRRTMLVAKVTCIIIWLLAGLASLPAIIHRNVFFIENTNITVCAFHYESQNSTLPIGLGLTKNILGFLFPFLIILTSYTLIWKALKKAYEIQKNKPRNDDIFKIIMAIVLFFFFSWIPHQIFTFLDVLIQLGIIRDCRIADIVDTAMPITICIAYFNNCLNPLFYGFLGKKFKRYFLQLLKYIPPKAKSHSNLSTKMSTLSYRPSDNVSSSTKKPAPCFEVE

rat AT1aR [2] = target: T2, rat AT1aR (Rattus norvegicus, UniProt P25095); experiment: IP1 accumulation assay (IP1 G-protein assay), rat AT1aR; conditions: for Emax: read-out: Span (relative to hAngII)
T2 sequence (P25095 1-359): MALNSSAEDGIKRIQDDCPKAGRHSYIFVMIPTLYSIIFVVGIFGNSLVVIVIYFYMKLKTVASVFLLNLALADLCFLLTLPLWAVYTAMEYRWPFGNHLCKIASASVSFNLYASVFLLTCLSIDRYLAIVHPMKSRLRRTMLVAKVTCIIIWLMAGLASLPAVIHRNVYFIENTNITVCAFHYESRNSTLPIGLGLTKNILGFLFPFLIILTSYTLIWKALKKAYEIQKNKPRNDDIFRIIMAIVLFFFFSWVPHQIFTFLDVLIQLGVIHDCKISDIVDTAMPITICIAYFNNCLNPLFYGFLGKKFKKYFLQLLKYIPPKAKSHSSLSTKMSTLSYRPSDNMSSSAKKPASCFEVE

human AT1R [3] = target: T1, human AT1R; experiment: beta-arrestin2 recruitment assay (PathHunter), human AT1R; conditions: for Emax: 1 h, read-out: Span (relative to hAngII)
Method in brief: (§1)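 Luminescence, in arbitrary units, read after 60 min room-temperature detection reflects β-arrestin-2 recruitment to human AT1R or rat AT1aR stably expressed in PathHunter HEK293 clones. Cells were exposed to peptides from 1 pM to 100 μM final in HEPES-buffered HBSS for 60 min at 37 °C.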

rat AT1aR [4] = target: T2, rat AT1aR; experiment: beta-arrestin2 recruitment assay (PathHunter), rat AT1aR; conditions: for Emax: 1 h, read-out: Span (relative to hAngII)
Method in brief: as §1

SMILES	EC50 (human AT1R [1]; read-out: EC50)	Emax (human AT1R [1])	EC50 (human AT1R [1]; read-out: pEC50 (converted))	EC50 (rat AT1aR [2]; read-out: EC50)	EC50 (rat AT1aR [2]; read-out: pEC50 (converted))	Emax (human AT1R [3])	EC50 (human AT1R [3]; read-out: EC50)	EC50 (human AT1R [3]; read-out: pEC50 (converted))	Emax (rat AT1aR [4])	EC50 (rat AT1aR [4]; read-out: EC50)	EC50 (rat AT1aR [4]; read-out: pEC50 (converted))	Emax (rat AT1aR [2])	EC50 (nM) (human AT1R [1])	pEC50 (human AT1R [1])	EC50 (nM) (rat AT1aR [2])	pEC50 (rat AT1aR [2])
CNCC(=O)N[C@@H](CCCNC(=N)N)C(=O)N[C@H](C(=O)N[C@@H](Cc1ccc(O)cc1)C(=O)NC1(C(=O)N[C@@H](Cc2c[nH]cn2)C(=O)N2CCC[C@H]2C(=O)N[C@@H](CC(C)C)C(=O)O)CCCC1)C(C)C [SEQ ID NO: 19, Sar-Arg-Val-Tyr-cyPen-His-Pro-Leu] (H-[Sar]RVY[Ac5c]HPL-OH)	> 1.3 nM	< 103%	> 0.631 nM	> 0.6 nM	> 0.631 nM	< 101%	> 3.2 nM	> 3.16 nM	< 105%	> 3.2 nM	> 3.16 nM	–	–	–	–	–
CNCC(=O)N[C@@H](CCCNC(=N)N)C(=O)N[C@H](C(=O)N[C@@H](Cc1ccc(O)cc1)C(=O)NC1(C(=O)N[C@@H](Cc2c[nH]cn2)C(=O)N2CCC[C@H]2C(=O)N[C@@H](Cc2ccccc2)C(=O)O)CCCCC1)C(C)C [SEQ ID NO: 17, Sar-Arg-Val-Tyr-cyHex-His-Pro-Phe] (H-[Sar]RVY[Ac6c]HPF-OH; N-terminus and C-terminus assumed)	< 1.3 nM	< 103%	> 0.631 nM	> 0.6 nM	–	> 101%	> 3.2 nM	–	< 105%	3.2 nM	–	> 104%	–	–	–	–
CNCC(=O)N[C@@H](CCCNC(=N)N)C(=O)N[C@H](C(=O)N[C@@H](Cc1ccc(O)cc1)C(=O)N1CCC[C@H]1C(=O)N[C@@H](Cc1c[nH]cn1)C(=O)N1CCC[C@H]1C(=O)N[C@@H](Cc1ccccc1)C(=O)O)C(C)C [SEQ ID NO: 10, Sar-Arg-Val-Tyr-Pro-His-Pro-Phe] (H-[Sar]RVYPHPF-OH; N-terminus and C-terminus assumed)	–	< 103%	–	–	–	< 101%	–	–	> 105%	–	–	< 104%	–	–	–	–
CNCC(=O)N[C@@H](CCCNC(=N)N)C(=O)N[C@H](C(=O)N[C@@H](Cc1ccc(O)cc1)C(=O)NC1(C(=O)N[C@@H](Cc2c[nH]cn2)C(=O)N2CCC[C@H]2C(=O)N[C@@H](C)C(=O)O)CCCC1)C(C)C [SEQ ID NO: 3, Sar-Arg-Val-Tyr-cyPen-His-Pro-Ala]	> 10000 nM	–	> 0.631 nM	> 0.6 nM	> 0.631 nM	< 101%	> 3.2 nM	> 3.16 nM	< 105%	> 3.2 nM	> 3.16 nM	–	–	–	–	–
CNCC(=O)N[C@@H](CCCNC(=N)N)C(=O)N[C@H](C(=O)N[C@@H](Cc1ccc(O)cc1)C(=O)NC1(C(=O)N[C@@H](Cc2c[nH]cn2)C(=O)N2CCC[C@H]2C(=O)N[C@@H](CCC(N)=O)C(=O)O)CCCCC1)C(C)C [SEQ ID NO: 38, Sar-Arg-Val-Tyr-cyHex-His-Pro-Gln] (H-[Sar]RVY[Ac6c]HPQ-OH)	> 1.3 nM	< 103%	> 0.631 nM	> 0.6 nM	> 0.631 nM	< 101%	> 3.2 nM	> 3.16 nM	< 105%	> 3.2 nM	> 3.16 nM	< 104%	–	–	–	–
CNCC(=O)N[C@@H](CCCNC(=N)N)C(=O)N[C@H](C(=O)N[C@@H](Cc1ccc(O)cc1)C(=O)NC1(C(=O)N[C@@H](Cc2c[nH]cn2)C(=O)N2CCC[C@H]2C(=O)N[C@H](C(=O)O)C(C)C)CCCC1)C(C)C [SEQ ID NO: 20, Sar-Arg-Val-Tyr-cyPen-His-Pro-Val] (H-[Sar]RVY[Ac5c]HPV-OH)	> 1.3 nM	< 103%	> 0.631 nM	> 0.6 nM	> 0.631 nM	< 101%	> 3.2 nM	> 3.16 nM	< 105%	> 3.2 nM	> 3.16 nM	< 104%	–	–	–	–
CNCC(=O)N[C@@H](CCCNC(=N)N)C(=O)N[C@H](C(=O)N[C@@H](Cc1ccc(O)cc1)C(=O)NC1(C(=O)N[C@@H](Cc2c[nH]cn2)C(=O)N2CCC[C@H]2C(=O)N[C@H](C(=O)O)[C@@H](C)O)CCCCC1)C(C)C [SEQ ID NO: 14, Sar-Arg-Val-Tyr-cyHex-His-Pro-Thr] (H-[Sar]RVY[Ac6c]HPT-OH)	> 1.3 nM	–	> 0.631 nM	> 0.6 nM	> 0.631 nM	< 101%	> 3.2 nM	> 3.16 nM	< 105%	> 3.2 nM	> 3.16 nM	–	–	–	–	–
CNCC(=O)N[C@@H](CCCNC(=N)N)C(=O)N[C@H](C(=O)N[C@@H](Cc1ccc(O)cc1)C(=O)NC1(C(=O)N[C@@H](Cc2c[nH]cn2)C(=O)N2CCC[C@H]2C(=O)N[C@@H](CCSC)C(=O)O)CCCC1)C(C)C [SEQ ID NO: 23, Sar-Arg-Val-Tyr-cyPen-His-Pro-Met] (H-[Sar]RVY[Ac5c]HPM-OH)	> 1.3 nM	< 103%	> 0.631 nM	> 0.6 nM	> 0.631 nM	< 101%	> 3.2 nM	> 3.16 nM	< 105%	> 3.2 nM	> 3.16 nM	< 104%	–	–	–	–
CNCC(=O)N[C@@H](CCCNC(=N)N)C(=O)N[C@H](C(=O)N[C@@H](Cc1ccc(O)cc1)C(=O)N1CCC[C@H]1C(=O)N[C@@H](Cc1c[nH]cn1)C(=O)N1CCC[C@H]1C(=O)N[C@@H](CCSC)C(=O)O)C(C)C [SEQ ID NO: 9, Sar-Arg-Val-Tyr-Pro-His-Pro-Met] (H-[Sar]RVYPHPM-OH; N-terminus and C-terminus assumed)	–	< 103%	–	–	–	< 101%	–	–	< 105%	–	–	< 104%	–	–	–	–
CNCC(=O)N[C@@H](CCCNC(=N)N)C(=O)N[C@H](C(=O)N[C@@H](Cc1ccc(O)cc1)C(=O)NC1(C(=O)N[C@@H](Cc2c[nH]cn2)C(=O)N2CCC[C@H]2C(=O)N[C@@H](C)C(=O)O)CCCCC1)C(C)C [SEQ ID NO: 2, Sar-Arg-Val-Tyr-cyHex-His-Pro-Ala]	10000 nM	< 103%	> 0.631 nM	> 0.6 nM	–	< 101%	> 3.2 nM	–	< 105%	> 3.2 nM	–	–	–	–	–	–
CNCC(=O)N[C@@H](CCCNC(=N)N)C(=O)N[C@H](C(=O)N[C@@H](Cc1ccc(O)cc1)C(=O)NC1(C(=O)N[C@@H](Cc2c[nH]cn2)C(=O)N2CCC[C@H]2C(=O)N[C@H](C)C(=O)O)CCCCC1)C(C)C [SEQ ID NO: 57, Sar-Arg-Val-Tyr-cyHex-His-Pro-D-Ala]	–	–	–	–	–	< 101%	> 3.2 nM	> 3.16 nM	< 105%	> 3.2 nM	> 3.16 nM	–	Inactive	Inactive	Inactive	Inactive
CNCC(=O)N[C@@H](CCCNC(=N)N)C(=O)N[C@H](C(=O)N[C@@H](Cc1ccc(O)cc1)C(=O)NC1(C(=O)N[C@@H](Cc2c[nH]cn2)C(=O)N2CCC[C@H]2C(=O)N[C@H](C(=O)O)[C@@H](C)O)CCCC1)C(C)C [SEQ ID NO: 21, Sar-Arg-Val-Tyr-cyPen-His-Pro-Thr] (H-[Sar]RVY[Ac5c]HPT-OH)	> 1.3 nM	–	> 0.631 nM	> 0.6 nM	> 0.631 nM	< 101%	> 3.2 nM	> 3.16 nM	< 105%	> 3.2 nM	> 3.16 nM	< 104%	–	–	–	–
